Measurements reported in US10702542B2, “Glycan therapeutics and related methods thereof” (priority 2015, dated 2020).

Key:
[1] = test system: gut microbiota; assay: Mouse model of Clostridium difficile infection: shifts in microbial gut constituents (16S rRNA); assay type: in vivo, mice (female C57BL/6); details: Day 6, FIG. 13; predicted from 16S rRNA sequencing using PICRUST
Method: (§1) Mice (female C57BL/6, 8-10 weeks old, 16-18 grams each; Harlan Laboratories, Indianapolis, Ind.) were housed in groups of 3 per cage, with 4 cages per treatment group. Mice were exposed to a cocktail of antibiotics in their drinking water for a period of 9 days, starting on day −14, fourteen days before Clostridium difficile challenge on day 0. The antibiotic cocktail consisted of 1% glucose, kanamycin (0.5 mg/ml), gentamicin (0.044 mg/ml), colistin (1062.5 U/ml), metronidazole (0.269 mg/ml), ciprofloxacin (0.156 mg/ml), ampicillin (0.1 mg/ml) and vancomycin (0.056 mg/ml). Three days prior to Clostridium difficile challenge (on Day −3), mice received a single dose of clindamycin (10 mg/kg) in a volume of 0.5 mL distilled water by oral gavage (PO) (see Table 10). All chemicals were purchased from Sigma-Aldrich Corp. (St. Louis, Mo.). On day 0, mice were challenged with Clostridium difficile (strain VPI 10463 (ATCC-43255)) spores at approximately 4.5 log10 spores per mouse, PO, in a dose volume of 0.5 mL distilled water.
To determine how the gut microbiota composition responds to treatment with glycan therapeutics, 16S rRNA sequencing of fecal pellets on the V4 variable region using standard protocols from the Earth Microbiome Project was performed (www.earthmicrobiome.org/emp-standard-protocols/). […]

[2] = test system: Clostridium difficile (strain VPI 10463 (ATCC-43255)); assay: Mouse model of Clostridium difficile infection: disease-associated phenotypes; assay type: in vivo, mice (female C57BL/6)
Method: This experiment was conducted to analyze the effects of glycan therapeutics in a mouse model of Clostridium difficile infection (Chen et al, 2008, A Mouse Model of Clostridium difficile—Associated Disease. Gastroenterology 135(6), 1984-1992). In this model, normal mice were exposed to an antibiotic regimen that renders them susceptible to C. difficile infection and disease symptoms, similar with respect to their development and manifestation of human clinical disease. In humans, the disease is most often the result of exposure to broad spectrum antibiotics which is thought to result in intestinal dysbiosis and subsequent increased colonic colonization with C. difficile. The increased bio-burden of C. difficile leads to toxin production by the bacterium and colonic inflammation. Clinical manifestations in humans include diarrhea, weight loss, intestinal inflammation, fever and dehydration. The clinical incidence of C. difficile infection and disease is about 750,000 cases per year in the US.
as §1
Disease-associated phenotypes were recorded for a duration of ten days starting on the day of Clostridium difficile challenge (on day 0) through day 10. The phenotypes, including lethargy, hunched posture and ruffled coat, wet tail/abdomen and hypothermia were scored from 0 to 4: Normal=0; Lethargic=1; Lethargic+Hunched=2; Lethargic+Hunched+Wet tail/abdomen (diarrhea)=3; and Lethargic+Hunched+Wet tail/abdomen+Hypothermic=4. Death (day 0 to day 10 or 11) and weight (day 1 to day 7 and day 10) of the animals was also monitored and recorded.
A treatment's ability to protect animals from death through day 6 in these experiments indicates disease prevention, e.g., in a human.
Effects of treatments was assessed by comparing the disease-associated phenotypes in glycan-treated, untreated (plain water) and vancomycin-treated groups. FOS is a commercially-available, non-digestible fructooligosaccharide.

[3] = vancomycin PO gavage QD days 0 to 4

CN[C@H](CC(C)C)C(=O)N[C@H]1C(=O)N[C@@H](CC(N)=O)C(=O)N[C@H]2C(=O)N[C@H]3C(=O)N[C@H](C(=O)N[C@H](C(=O)O)c4cc(O)cc(O)c4-c4cc3ccc4O)[C@H](O)c3ccc(c(Cl)c3)Oc3cc2cc(c3O[C@@H]2O[C@H](CO)[C@@H](O)[C@H](O)[C@H]2O[C@H]2C[C@](C)(N)[C@H](O)[C@H](C)O2)Oc2ccc(cc2Cl)[C@H]1O [Vancomycin, vancomycin]
predicted functional potential of the gut microbiome to convert primary bile acids to secondary bile acids [1]: not observed | animal survival versus animals treated with water (vehicle) ([2]; Kaplan-Meier, FIG. 10): significant difference | clinical score of survivors ([2]; score 0 to 4, after end of treatment, days 7 to 10/11): above 0 | animals died by day 10 [2, 3]: 17% | animals survived to day 7 [2, 3]: 100% | clinical signs on day 10 [2, 3]: exhibited clinical signs
